{"source": "patent US20040242871A1", "about": "“Novel arylheteroalkylamine derivatives” (priority 2001, published 2004)", "molecular_target": "T1, Nitric oxide synthase from induced murine macrophage cell line J774A-1 (Mus musculus, UniProt P29477)", "T1 construct": "The reaction is started by adding 50 μl of cell lysate (prepared as above); endogenous in cells; host or cells: J774A-1 murine macrophage cell line, induced with LPS and IFN-gamma; crude cell lysate", "assay": "Screen 1: nitric oxide synthase inhibition, conversion of 3H-L-arginine into 3H-L-citrulline, lysate of induced J774A-1 cells", "format": "biochemical", "conditions": "J774A-1 cell lysate (LPS/IFNg induced), 1 hour at room temperature; read-out: IC50 (concentration of drug substance which gives 50% enzyme inhibition in the assay)", "experimental": "The activity of compounds of formula (I), or a pharmaceutically acceptable salt, enantiomer or racemate thereof, may be screened for nitric oxide synthase inhibiting activity by a procedure based on that of Förstermann et al., Eur. J. Pharm., 1992, 225, 161-165. Nitric oxide synthase converts ^3H-L-arginine into ^3H-L-citrulline which can be separated by cation exchange chromatography and quantified by liquid scintillation counting.\nEnzyme is prepared, after induction, from the cultured murine macrophage cell line J774A-1 (obtained from the laboratories of the Imperial Cancer Research Fund). J774A-1 cells are cultured in Dulbeccos Modified Eagles Medium (DMEM) supplemented with 10% foetal bovine serum, 4 mM L-glutamine and antibiotics (100 units/ml penicillin G, […] streptomycin & […] amphotericin B). Cells are routinely grown in […] flasks containing 35 ml medium kept at 37° C. and in a humidified atmosphere containing 5% CO2. […]\nLabelled L-citrulline is separated from labelled L-arginine using Dowex AG-SOW. […] After allowing the samples to dry the L-citrulline is quantified by scintillation counting.\nIn a typical experiment basal activity is 300 dpm per 75 μl sample which is increased to 1900 dpm in the reagent controls. […] Compounds are tested at a range of concentrations and from the inhibitions obtained IC50 values are calculated. […]", "data": [{"smiles": "N=C(N)NN", "note": "[aminoguanidie]", "values": [{"measurement": "IC50", "result": 10, "unit": "µM"}]}]}
